Results from PubChem BioAssay AID1963869 (Molecular Pharmacology Branch, DTP, NCI, 2024).

Tested on: KRAS patient-derived spheroids with HUVEC/MSC, viability
Assay: Anticancer human tumor 323965-272-R-J2-PDC patient-derived pancreatic carcinoma cell line growth inhibition [KRAS2]
Settings: for IC50: curve of first compound; for viability, T/C: stronger effect = lower value
Procedure, shortened: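 KRAS-mutant tumor cells were grown as spheroids with HUVEC endothelial cells and human MSCs as stroma. Targeted agents were tested alone and with KRAS pathway inhibitors. Doses started at or near clinical Cmax, or 10 microM, descending half-log.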

[1] = second compound 0.1 µM, first compound 0.00316 µM
[2] = second compound 0.1 µM, first compound 0.01 µM
[3] = second compound 0.1 µM, first compound 0.0316 µM
[4] = second compound 0.1 µM, first compound 0.1 µM
[5] = second compound 0.1 µM, first compound 0.316 µM
[6] = second compound 0.1 µM, first compound 1 µM
[7] = second compound 0.316 µM, first compound 0.00316 µM
[8] = second compound 0.316 µM, first compound 0.01 µM
[9] = second compound 0.316 µM, first compound 0.0316 µM
[10] = second compound 0.316 µM, first compound 0.1 µM
[11] = second compound 0.316 µM, first compound 0.316 µM
[12] = second compound 0.316 µM, first compound 1 µM
[13] = second compound 1 µM, first compound 0.00316 µM
[14] = second compound 1 µM, first compound 0.01 µM
[15] = second compound 1 µM, first compound 0.0316 µM
[16] = second compound 1 µM, first compound 0.1 µM
[17] = second compound 1 µM, first compound 0.316 µM
[18] = second compound 1 µM, first compound 1 µM
[19] = second compound 3.16 µM, first compound 0.00316 µM
[20] = second compound 3.16 µM, first compound 0.01 µM
[21] = second compound 3.16 µM, first compound 0.0316 µM
[22] = second compound 3.16 µM, first compound 0.1 µM
[23] = second compound 3.16 µM, first compound 0.316 µM
[24] = second compound 3.16 µM, first compound 1 µM
[25] = second compound 10 µM, first compound 0.00316 µM
[26] = second compound 10 µM, first compound 0.01 µM
[27] = second compound 10 µM, first compound 0.0316 µM
[28] = second compound 10 µM, first compound 0.1 µM
[29] = second compound 10 µM, first compound 0.316 µM
[30] = second compound 10 µM, first compound 1 µM
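Also: spheroids exposed to agents for 7 days.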
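For viability, T/C in this document: 100% = DMSO vehicle control viability.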

CCN1CCN(Cc2ccc(Nc3ncc(F)c(-c4cc(F)c5nc(C)n(C(C)C)c5c4)n3)nc2)CC1 + C=CC(=O)N1CCN(c2nc(=O)n(-c3c(C)ccnc3C(C)C)c3nc(-c4c(O)cccc4F)c(F)cc23)C(C)C1 showed an IC50 (second compound 0.1 µM) of 8.91 nM, an IC50 (second compound 0.316 µM) of 6.62 nM and an IC50 (second compound 1 µM) of 11.7 nM. It also gave an IC50 (second compound 3.16 µM) of 6.49 nM, an IC50 (second compound 10 µM) of under 3.16 nM and a viability, T/C [1] of 57.6%. For the same compound, the viability, T/C [2] was 54.7%, the viability, T/C [3] was 39.8% and the viability, T/C [4] was 37.5%. It also gave a viability, T/C [5] of 37.1%, a viability, T/C [6] of 43.1% and a viability, T/C [7] of 59.8%. It also gave a viability, T/C [8] of 46.5%, a viability, T/C [9] of 38.7% and a viability, T/C [10] of 29.6%. The viability, T/C [11] was 33.5%, the viability, T/C [12] was 43.8% and the viability, T/C [13] was 51%. For the same compound, the viability, T/C [14] was 52.8%, the viability, T/C [15] was 36.4% and the viability, T/C [16] was 35.5%. The viability, T/C [17] was 31.6%, the viability, T/C [18] was 48.8% and the viability, T/C [19] was 56.6%. The viability, T/C [20] was 49.1%, the viability, T/C [21] was 38.1% and the viability, T/C [22] was 39.5%. For the same compound, the viability, T/C [23] was 33.4%, the viability, T/C [24] was 51.5% and the viability, T/C [25] was 38.6%. For the same compound, the viability, T/C [26] was 52.2%, the viability, T/C [27] was 37.6% and the viability, T/C [28] was 36.5%. For the same compound, the viability, T/C [29] was 37.1% and the viability, T/C [30] was 45.4%.
CC(=O)Nc1cccc(-n2c(=O)n(C3CC3)c(=O)c3c(Nc4ccc(I)cc4F)n(C)c(=O)c(C)c32)c1 + C=CC(=O)N1CCN(c2nc(=O)n(-c3c(C)ccnc3C(C)C)c3nc(-c4c(O)cccc4F)c(F)cc23)C(C)C1 gave an IC50 (second compound 0.1 µM) of 1.15 nM, an IC50 (second compound 0.316 µM) of 0.987 nM and an IC50 (second compound 1 µM) of 0.79 nM. For the same compound, the IC50 (second compound 3.16 µM) was 1.19 nM, the IC50 (second compound 10 µM) was 0.295 nM and the viability, T/C (second compound 0.1 µM, first compound 0.0001 µM) was 67.4%. For the same compound, the viability, T/C (second compound 0.1 µM, first compound 0.000316 µM) was 62.2%, the viability, T/C (second compound 0.1 µM, first compound 0.001 µM) was 49.2% and the viability, T/C [1] was 40.1%. It also gave a viability, T/C [2] of 36.6%, a viability, T/C [3] of 23.4% and a viability, T/C (second compound 0.316 µM, first compound 0.0001 µM) of 60.1%. The viability, T/C (second compound 0.316 µM, first compound 0.000316 µM) was 57.1%, the viability, T/C (second compound 0.316 µM, first compound 0.001 µM) was 49.3% and the viability, T/C [7] was 41.5%. For the same compound, the viability, T/C [8] was 33.7%, the viability, T/C [9] was 20.9% and the viability, T/C (second compound 1 µM, first compound 0.0001 µM) was 61.4%. It also gave a viability, T/C (second compound 1 µM, first compound 0.000316 µM) of 58.3%, a viability, T/C (second compound 1 µM, first compound 0.001 µM) of 46.4% and a viability, T/C [13] of 40.4%. For the same compound, the viability, T/C [14] was 32.7%, the viability, T/C [15] was 27% and the viability, T/C (second compound 3.16 µM, first compound 0.0001 µM) was 64.1%. For the same compound, the viability, T/C (second compound 3.16 µM, first compound 0.000316 µM) was 59.5%, the viability, T/C (second compound 3.16 µM, first compound 0.001 µM) was 51.4% and the viability, T/C [19] was 42.1%. The viability, T/C [20] was 36.7%, the viability, T/C [21] was 28.2% and the viability, T/C (second compound 10 µM, first compound 0.0001 µM) was 60.9%. For the same compound, the viability, T/C (second compound 10 µM, first compound 0.000316 µM) was 54.3%, the viability, T/C (second compound 10 µM, first compound 0.001 µM) was 32.6% and the viability, T/C [25] was 35.8%. It also gave a viability, T/C [26] of 28.1% and a viability, T/C [27] of 23.8%.
For COc1cc2nccc(Oc3ccc(NC(=O)C4(C(=O)Nc5ccc(F)cc5)CC4)cc3)c2cc1OC + C=CC(=O)N1CCN(c2nc(=O)n(-c3c(C)ccnc3C(C)C)c3nc(-c4c(O)cccc4F)c(F)cc23)C(C)C1, the IC50 (second compound 0.1 µM) was over 10000 nM, the IC50 (second compound 0.316 µM) was over 10000 nM and the IC50 (second compound 1 µM) was over 10000 nM. For the same compound, the IC50 (second compound 3.16 µM) was over 10000 nM, the IC50 (second compound 10 µM) was 1190 nM and the viability, T/C [3] was 54.7%. It also gave a viability, T/C [4] of 56%, a viability, T/C [5] of 58.8% and a viability, T/C [6] of 62.6%. For the same compound, the viability, T/C (second compound 0.1 µM, first compound 3.16 µM) was 64.2%, the viability, T/C (second compound 0.1 µM, first compound 10 µM) was 57.8% and the viability, T/C [9] was 52.8%. It also gave a viability, T/C [10] of 55.1%, a viability, T/C [11] of 58.1% and a viability, T/C [12] of 61.8%. It also gave a viability, T/C (second compound 0.316 µM, first compound 3.16 µM) of 62.5%, a viability, T/C (second compound 0.316 µM, first compound 10 µM) of 59.8% and a viability, T/C [15] of 54.5%. For the same compound, the viability, T/C [16] was 52.3%, the viability, T/C [17] was 59.9% and the viability, T/C [18] was 61.7%. The viability, T/C (second compound 1 µM, first compound 3.16 µM) was 63.8%, the viability, T/C (second compound 1 µM, first compound 10 µM) was 61.5% and the viability, T/C [21] was 57.1%. For the same compound, the viability, T/C [22] was 56.9%, the viability, T/C [23] was 56.2% and the viability, T/C [24] was 61.2%. For the same compound, the viability, T/C (second compound 3.16 µM, first compound 3.16 µM) was 58.6%, the viability, T/C (second compound 3.16 µM, first compound 10 µM) was 55.6% and the viability, T/C [27] was 47.6%. For the same compound, the viability, T/C [28] was 54.2%, the viability, T/C [29] was 45.5% and the viability, T/C [30] was 61.9%. It also gave a viability, T/C (second compound 10 µM, first compound 3.16 µM) of 29.4% and a viability, T/C (second compound 10 µM, first compound 10 µM) of 44.2%.
